≈ marks a conversion by molar mass, not a printed value. Where two headings read alike, the source gives them in different places.
Columns and labels:
[1] = tested on: Pseudomonas aeruginosa ATCC 10145; assay: Kill curve assay (MBC), planktonic cells; assay type: cell-based; details: for MBC: Pseudomonas aeruginosa, ATCC10145, minimal bactericidal concentration, planktonic cells, 24 h challenge, LB medium, read-out: MBC P. aeruginosa; for log reduction in the number of viable CFUs, P. aeruginosa: highest concentration tested 100 μM, 24 h; for B-SI (Bacterial Selectivity Index), P. aeruginosa: ratio of IC50 of normal hTERT-RPE-1 to MBC of P. aeruginosa, first value of the cell
Method: (§1) Kill curve assays were performed to test the antimicrobial efficacy of pyrrolomycins (i.e., 1, 2, 5a, 5b, 5c, 5d), as well as that of the natural PM-C against the indicator pathogen Staphylococcus aureus ATCC 25923 and Pseudomonas aeruginosa ATCC 10145 strains. Briefly, a single colony of either S. aureus or P. aeruginosa strains was picked up and pre-cultivated (ca. 16 h) at 37 °C with shacking (160 rpm) in Luria Bertani medium (hereinafter named as LB and composed of (g L^−1): sodium chloride, 10; yeast extract, 5; tryptone, 10). The same medium was solidified by adding 15 g L^−1 of bacteriological agar when needed. Bacterial cells were then inoculated (1% v/v) in LB medium amended with increasing concentrations—ranging from 0 to 100 μM as initial concentration—of each pyrrolomycin tested, challenging the cultures for 24 h and incubating them as reported above. The actual number of viable colony forming units per milliliter of culture (CFU mL^−1) of each bacterial strain, who survived the challenge exerted by pyrrolomycins, was evaluated through the spot plate count method and compared to unchallenged cultures, as reported elsewhere. The data are reported as average values (n = 3) of CFU mL^−1 in the logarithmic (Log10) scale with standard deviation (SD). Evaluation of the MIC of PM-5c, and -5d against S. aureus and of PM-5d against P. aeruginosa was performed by incubating 1% (v/v) of an overnight bacterial suspension in LB medium in presence of increasing concentrations of the PMs. As a control, MIC of PM-C was measured. At the time of the inoculum and after overnight challenge, the absorbance of the cultures at 600 nm, which is an indirect way to measure the bacterial cell growth, was registered using a Spark™ 10 M multimode microplate reader measuring. The experiment was carried out in triplicate, being the absorbance corrected by subtracting that of the culture medium amended with the corresponding PM tested.

[2] = tested on: Staphylococcus aureus ATCC 25923; assay: Kill curve assay (MBC), planktonic cells; assay type: cell-based; details: for MBC: minimal bactericidal concentration, planktonic cells, 24 h challenge, LB medium, read-out: MBC S. aureus; for B-SI (Bacterial Selectivity Index), S. aureus: ratio of IC50 of normal hTERT-RPE-1 to MBC of S. aureus, second value of the cell
Method: as §1

HCT116 cells [3] = assay: Acridine orange/ethidium bromide (AO/EB) staining; assay type: cell-based; details: treated at IC50 for 24 and 48 h
Source text: Cells were immediately observed under a fluorescent microscopy (Carl Zeiss) at 630 × magnification.

[4] = tested on: hTERT RPE-1 immortalized retinal pigment epithelial cell line; assay: MTT viability assay (cytotoxicity on normal cells); assay type: cell-based; details: hTERT-RPE1; MTT, 48 h of treatment, normal epithelial cells; read-out: IC50 hTERT-RPE-1
Method: (§2) The HCT116 colon cancer cell line (ATCC® CCL-247™), the MCF 7 breast cancer cell line (ATCC® HTB-22™) and the hTERT RPE-1 -immortalized retinal pigment epithelial cell line (ATCC® CRL-4000™) used in this study were cultured in DMEM medium (Gibco, Paisley, UK), supplemented with 1% glutamine, 10% heat-inactivated fetal bovine serum and 100U/mL penicillin and 100 μg/mL streptomycin, as already described, and maintained at 37 °C and 5% CO2.
(§3) Cells were plated at 5 × 10^3 cells/well in 96-well plates and incubated for 24 h prior to treatment for further 48 h of different concentrations of PMs. After incubation, a sample of 20 μL of Thiazolyl Blue Tetrazolium Bromide (5 mg mL^−1) in PBS was added to each well and cultured for 2h at 37 °C in CO2 incubator. After removing the medium containing MTT and three washes with PBS, 100 μL of warm DMSO was added to each well to dissolve formazan. Samples were shaken for 10 min, at room temperature in the dark, and the absorbance was recorded at 570 nm using a microplate reader (Spark® 20M Tecan Trading AG, Switzerland). Percentage of cell viability with respect to untreated control cells (vehicle control) was calculated after subtraction of the blank. The IC50 values, that is the concentration necessary to inhibit the 50% of cell growth, was calculated using a dose-response model, obtained from sigmoidal fitting of response curves of percent inhibition versus logarithmic concentration of PMs, using Graph Pad Prism software. Each result represents the mean value of three different experiments performed in triplicate.

[5] = tested on: HCT116 colon cancer cell line; assay: MTT viability assay; assay type: cell-based; details: for IC50: MTT, 48 h of treatment; for C-SI (Cancer Selectivity Index), HCT116: ratio of IC50 of normal hTERT-RPE-1 to that of HCT116, first value of the cell
Method: as §2, §3

[6] = tested on: MCF 7 breast cancer cell line; assay: MTT viability assay; assay type: cell-based; details: for IC50: MTT, 48 h of treatment; for C-SI (Cancer Selectivity Index), MCF 7: ratio of IC50 of normal hTERT-RPE-1 to that of MCF 7, second value of the cell
Method: as §2, §3

HCT116 cells [7] = assay: Morphological assessment, phase contrast inverted microscope; assay type: cell-based; details: 0.1 µM (sub-inhibitory), 24 h
Method: HCT116 cells were seeded in 24 well culture plates with a cell density of 1 × 10^5 cells/well. After 24 h cells were incubated for 24 h with different concentration of the selected PMs, and observed under a phase contrast inverted microscope (Carl Zeiss) at 200× magnification, for morphological changes assessment.

[8] = tested on: HCT116 and MCF 7 cancer cell lines; assay: MTT viability assay, statements over both cancer cell lines; assay type: cell-based; details: for IC50: MTT, 48 h challenge, group statement, read-out: IC50, regardless of the cancer cell line (HCT116, MCF 7); for C-SI, mean value among the two cancer cell lines: mean of HCT116 and MCF 7 C-SI
Method: as §2, §3

S. aureus = assay: MIC by absorbance at 600 nm after overnight challenge; assay type: cell-based; details: Staphylococcus aureus, LB medium, absorbance 600 nm
Method: as §1

Escherichia coli = tested on: Escherichia coli; parameters: method as in PMID 31405863, PMID 15730262; details: natural PMs; cited from earlier work
[9] = Staphylococcus aureus, ATCC25923

Structure (SMILES)	MBC [1] [µM]	log reduction in the number of viable CFUs, P. aeruginosa [1] [log]	B-SI (Bacterial Selectivity Index), P. aeruginosa [1]	MBC [2, 9] [µM]	B-SI (Bacterial Selectivity Index), S. aureus [2]	IC50 [4] [µM]	IC50 ([5]; Homo sapiens, HCT-116, 48 h) [µM]	C-SI (Cancer Selectivity Index), HCT116 [5]	IC50 ([6]; Homo sapiens, MCF7, 48 h) [µM]	IC50 [6] [µM]	C-SI (Cancer Selectivity Index), MCF 7 [6]	IC50 [8] [nM]	C-SI, mean value among the two cancer cell lines [8]	IC50 [5] [µM]	melting point [°C]	MBC [2] [µM]	MIC against Escherichia coli (Escherichia coli)	also measured
O=C(c1cc(Br)cc(Br)c1O)c1[nH]c(Br)c(Br)c1Br [PM 1, 3,4,5,3′,5′-Pentabromo-2-(2′-hydroxybenzoyl)pyrrole, reference compound]	> 100	2.2	> 0.6	5 (≈ 2.91 µg/mL)	11.5	57.7 ± 11.2	1.3 ± 0.3	44.2	1.22 ± 0.69	1.2 ± 0.7	47.3	800 to 2250	46	–	–	–	–	AO/EB fluorescence of treated HCT116 cells (type of cell death) (HCT116 cells [3]): red fluorescence; morphology of treated HCT116 cells (HCT116 cells [7]): more fibroblastic and less clumped morphology
COc1c(Br)cc(Br)cc1C(=O)c1c(Br)c(Br)c(Br)n1C [PM 2, (3,5-Dibromo-2-methoxyphenyl)(3,4,5-tribromo-1-methyl-1H-pyrrol-2-yl)methanone]	> 100	–	> 1.5	70 (≈ 42.7 µg/mL)	2.1	149 ± 41	11.1 ± 3.26	13.4	17.2 ± 3.2	17.2 ± 3.2	8.6	> 7000	11	11.1 ± 3.3	179 to 180	–	–	–
O=C(c1cc([N+](=O)[O-])c[nH]1)c1cc(Cl)cc(Cl)c1O [PM 5a, (3,5-Dichloro-2-hydroxyphenyl)(4-nitro-1H-pyrrol-2-yl)methanone]	> 100	–	> 0.7	60 (≈ 18.1 µg/mL)	1.1	65.8 ± 10.5	1.9 ± 0.42	34.6	2.25 ± 0.35	2.2 ± 0.3	29.2	800 to 2250	32	–	–	60 (≈ 18.1 µg/mL)	–	AO/EB fluorescence of treated HCT116 cells (type of cell death) (HCT116 cells [3]): orange fluorescence; morphology of treated HCT116 cells (HCT116 cells [7]): more fibroblastic and less clumped morphology
O=C(c1cc(Cl)c([N+](=O)[O-])[nH]1)c1cc(Cl)cc(Cl)c1O [PM 5b, (4-Chloro-5-nitro-1H-pyrrol-2-yl)(3,5-dichloro-2-hydroxyphenyl)methanone]	> 100	2.7	> 0.6	20 (≈ 6.71 µg/mL)	2.8	55.4 ± 13.2	18.7 ± 3.81	3	28.8 ± 4.21	28.8 ± 4.2	1.9	> 7000	2.5	18.7 ± 3.8	180 to 182	20 (≈ 6.71 µg/mL)	–	–
O=C(c1cc(Br)c([N+](=O)[O-])[nH]1)c1cc(Cl)cc(Cl)c1O [PM 5c, (4-Bromo-5-nitro-1H-pyrrol-2-yl)(3,5-dichloro-2-hydroxyphenyl)methanone]	> 100	2.2	> 0.3	1 (≈ 0.38 µg/mL)	29.7	29.7 ± 5.7	7.64 ± 1.88	–	12 ± 2.85	12 ± 2.8	–	> 7000	8	7.6 ± 1.9	175 to 177	1 (≈ 0.38 µg/mL)	–	fold more active than the synthetic PM-1 (S. aureus) ([2]; fold versus PM-1): 5; times more active than PM-C (S. aureus MBC) ([2]; fold versus PM-C): 90; times less toxic than PM-C (bacterial SI) ([2]; from bacterial selectivity index, S. aureus): 30; MIC (S. aureus): 0.5 µM (≈ 0.19 µg/mL)
O=[N+]([O-])c1c([C@@H](O)c2cc(Cl)cc(Cl)c2O)[nH]c(Cl)c1Cl [PM-G]	–	–	–	–	–	–	–	–	–	–	–	–	–	–	–	–	more than 300 μM	–
COc1c(Cl)cc(Cl)cc1[C@H](O)c1[nH]c(Cl)c(Cl)c1[N+](=O)[O-] [PM-H]	–	–	–	–	–	–	–	–	–	–	–	–	–	–	–	–	more than 300 μM	–
COc1c(Cl)cc(Cl)cc1C(=O)c1cc(Cl)c(Cl)[nH]1 [PM-I]	–	–	–	–	–	–	–	–	–	–	–	–	–	–	–	–	more than 300 μM	–
COc1c(Cl)cc(Cl)cc1C(=O)c1[nH]c(Cl)c(Cl)c1Cl [PM-J]	–	–	–	–	–	–	–	–	–	–	–	–	–	–	–	–	more than 300 μM	–

From publication PMC7345095, “New Synthetic Nitro-Pyrrolomycins as Promising Antibacterial and Anticancer Agents” (Antibiotics, 2020)
